One assay deals with EOL-1 cell line. The experiment in a line: In vitro antiproliferation assay, General Procedure 2 (CCK-8). Type of assay: cell-based, human. Particulars: Homo sapiens, EOL1; Acute myeloid leukemia; read-out: IC50, EOL-1. An excerpt:
(§1) Cell Culture: Cell lines were obtained from the American Type Culture Collection (ATCC, Manassas, VA, USA) or Deutsche Sammlung von Mikroorganismen und Zellkulturen (DSMZ, Braunschweig, Germany) and maintained according to the culturing conditions specified by ATCC or DSMZ. Cells were thawed out and maintained in culture for at least two passages before proceeding with experimental conditions.
(§2) Cytotoxicity assays: For adherent cell lines, the cells were dissociated with enzyme-free PBS-based cell dissociation buffer (Gibco, USA) and plated on tissue culture treated 96-well flat bottom polystyrene plates (Costar, Corning, USA) at appropriate cell densities depending on doubling time of the cells. 18 hours after plating, cells were treated with test articles at appropriate concentrations starting at 100 nM and diluted in 4-fold serial dilutions. For suspension cell lines, the cells were seeded on the same day of treatment and cells were treated as described above. Adherent cells were treated for 5 days and suspension cells were treated for 3 days. Cell proliferation was assessed using the Cell Counting Kit-8 (CCK-8, Dojindo Laboratories, Japan) and measurements were obtained using the Promega GloMax Discover plate reader (Promega, USA). Data were analyzed using GraphPad Prism software (GraphPad Software, San Diego, CA). All data points were obtained from technical triplicates and the experiments were validated using three biological replicates.

The next assay has as its system OCI-M2 cell line. The description is as above. Particulars: Acute myelocytic leukemia. The assay is classed as cell-based.
Excerpt: as §1, §2

A further assay has as its system SKOV3 cell line. Described as above. Particulars: Homo sapiens, SK-OV-3; Ovarian. Type of assay: cell-based.
Excerpt: as §1, §2

Another assay relates to KE39 cell line. Described as above. The assay is classed as cell-based. The settings on record: Gastric.
Excerpt: as §1, §2

A further assay has as its system HL-60 cell line. The description is as above. Type of assay: cell-based. Particulars: Homo sapiens, HL-60; AML; read-out: IC50, HL-60.
Excerpt: as §1, §2

The subject of another assay is NB-4 cell line. The description is as above. The assay is classed as cell-based. The settings on record: Homo sapiens, Acute promyelocytic leukemia.
Excerpt: as §1, §2

For another assay, the system named is THP-1 cell line. The assay is described as above. Particulars: Homo sapiens, AML. Type of assay: cell-based.
Excerpt: as §1, §2

A further assay concerns JHUEM3 cell line. The assay is described as above. The settings on record: Endometrial. Type of assay: cell-based.
Excerpt: as §1, §2

For a further assay, the system named is SNU182 cell line. The description is as above. Particulars: Homo sapiens, SNU-182; Liver. Type of assay: cell-based.
Excerpt: as §1, §2

Another assay deals with Daudi cell line. Described as above. The assay is classed as cell-based. The settings on record: Homo sapiens, NHL.
Excerpt: as §1, §2

The subject of the next assay is MOLM13 cell line. Described as above. Type of assay: cell-based. Particulars: Homo sapiens, MOLM-13; AML; read-out: IC50, MOLM13.
Excerpt: as §1, §2

Another assay concerns RPMI7951 cell line. The assay is described as above. The assay is classed as cell-based. Particulars: Homo sapiens, RPMI-7951; Skin.
Excerpt: as §1, §2

For the next assay, the system named is SK-BR-3 cell line. The description is as above. The settings on record: Homo sapiens, Breast, read-out: IC50, SKBR3. The assay is classed as cell-based.
Excerpt: as §1, §2

The next assay has as its system LOVO cell line. Described as above. The settings on record: Homo sapiens, Colon. Type of assay: cell-based.
Excerpt: as §1, §2

A further assay deals with ML-2 cell line. The description is as above. The assay is classed as cell-based. The settings on record: Homo sapiens, ML-2; Acute myelomonocytic leukemia; read-out: IC50, ML-2.
Excerpt: as §1, §2

A further assay concerns AGS cell line. The description is as above. The assay is classed as cell-based. Particulars: Homo sapiens, Gastric.
Excerpt: as §1, §2

A further assay concerns THLE2 cell line. The description is as above. Particulars: THLE-2; Human liver normal. The assay is classed as cell-based.
Excerpt: as §1, §2

In another assay the test system is OCI-AML4 cell line. The description is as above. The assay is classed as cell-based. The settings on record: Acute myeloid leukemia; read-out: IC50, OCI-AML4.
Excerpt: as §1, §2

For the next assay, the system named is OCI-AML2 cell line. The assay is described as above. The assay is classed as cell-based. The settings on record: Homo sapiens, OCI-AML2; Acute myeloid leukemia; read-out: IC50, OCI-AML2.
Excerpt: as §1, §2

In the next assay the test system is PL-21 cell line. The assay is described as above. Type of assay: cell-based. Particulars: Acute myeloid leukemia.
Excerpt: as §1, §2

A further assay concerns Molp8 cell line. The assay is described as above. The assay is classed as cell-based. Particulars: Homo sapiens, MOLP-8; MM.
Excerpt: as §1, §2

The subject of a further assay is SKM-1 cell line. The assay is described as above. The assay is classed as cell-based. Particulars: Homo sapiens, SKM-1; Acute myeloid leukemia; read-out: IC50, SKM-1.
Excerpt: as §1, §2

A further assay deals with OCI-M1 cell line. The assay is described as above. The assay is classed as cell-based. The settings on record: Acute myeloid leukemia.
Excerpt: as §1, §2

The next assay relates to SU-DHL-8 cell line. Described as above. The assay is classed as cell-based. Particulars: Homo sapiens, NHL.
Excerpt: as §1, §2

Another assay relates to MV4-11 cell line. The assay is described as above. The assay is classed as cell-based. The settings on record: Homo sapiens, MV4-11; Biphenotypic B myelomonocytic leukemia; read-out: IC50, MV4-11.
Excerpt: as §1, §2

Another assay has as its system BT-474 cell line. The assay is described as above. The assay is classed as cell-based. The settings on record: Homo sapiens, Breast, read-out: IC50, BT474.
Excerpt: as §1, §2

The next assay deals with U251MG cell line. The description is as above. Type of assay: cell-based. The settings on record: Homo sapiens, U-251; Brain.
Excerpt: as §1, §2

The test system of the next assay is CMK cell line. The description is as above. The assay is classed as cell-based. Particulars: Homo sapiens, Acute megakaryocytic leukemia.
Excerpt: as §1, §2

For assay [1], the system named is BT-474 breast cancer cell line. Put plainly: In vitro antiproliferation assay, General Procedure 1 (WST-8). Type of assay: cell-based. Particulars: Homo sapiens, BT-474, read-out: IC50, BT-474, conjugates DAR 8, comparators DAR not given. The method, then: (§3) The ability of neoDegrader conjugates to inhibit cell growth was measured using in vitro anti-proliferation assay. […] Conjugates were diluted in complete cell growth medium using 4-fold serial dilutions and 100 µL was added per well. […] Viability of remaining cells was determined by colorimetric WST-8 assay (Dojindo Molecular Technologies, Inc., Rockville, MD, US). WST-8 was added to 10% of the final volume and plates were incubated at 37° C. in a humidified 5% CO2 incubator for 2-4 hours. Plates were analyzed by measuring the absorbance at 450 nm (A450) in a multi-well plate reader. Background A450 absorbance of wells with media and WST-8 only was subtracted from all values. The percent viability was calculated by dividing each treated sample value by the average value of wells with untreated cells. The percent viability value was plotted against the test sample concentration in a semi-log plot for each treatment. IC50 values were calculated automatically.

For assay [2], the system named is SK-BR-3 breast cancer cell line. Described as above. The assay is classed as cell-based. The settings on record: SK-BR-3 cells; neoDegrader conjugates (DAR 8) versus comparators; FIGS. 7 and 8. As for the experimental part: as §3
The test system of assay [3] is Ramos (non-Hodgkins lymphoma) cell line. Described as above. Particulars: Ramos cells; rituximab neoDegrader conjugates versus comparators; FIG. 13. The assay is classed as cell-based. The method, then:
as §3

The subject of assay [4] is NCI-N87 gastric cancer cell line. The assay is described as above. Type of assay: cell-based. Particulars: NCI-N87 cells; neoDegrader conjugates (DAR 8) versus comparators; FIGS. 16 and 17. As for the experimental part:
as §3

In assay [5] the test system is HL-60 (acute myeloid leukemia) cell line. The assay is described as above. Type of assay: cell-based. Particulars: AML; conjugates DAR 8, Mylotarg DAR not given. As for the experimental part: as §3

From patent publication US20230338564A1, “NEODEGRADER CONJUGATES” (Orum Therapeutics, Inc., priority 2020, published 2023) come the findings set out here.

For `O=C1CCC(N2Cc3cc(CNC(=O)Nc4ccc(CCO)c(Cl)c4)ccc3C2=O)C(=O)N1` (stereo not drawn) [Compound P3, 1-(3-chloro-4-(2-hydroxyethyl)phenyl)-3-((2-(2,6-dioxopiperidin-3-yl)-1-oxoisoindolin-5-yl)methyl)urea], the IC50 in the assay on EOL-1 cell line was determined as 0.733 nM; with OCI-M2 cell line, 21.1 nM; in the assay on SKOV3 cell line, 99.7 nM; with KE39 cell line it was 650 nM; in the assay with HL-60 cell line, 3.02 nM; in the assay on NB-4 cell line, 2.2 nM. The IC50 came to 65 nM with THP-1 cell line; 37.4 nM with JHUEM3 cell line; 8.86 nM in the assay on SNU182 cell line; 9.17 nM with Daudi cell line; 8.5 nM with MOLM13 cell line; 26 nM in the assay with RPMI7951 cell line. The IC50 with SK-BR-3 cell line worked out at 35 nM; in the assay on LOVO cell line it was 750 nM; in the assay with ML-2 cell line it was 0.587 nM; with AGS cell line, 650 nM; with THLE2 cell line it was 59.9 nM; in the assay on OCI-AML4 cell line, 7 nM. Besides, the IC50 amounted to 29.1 nM in the assay with OCI-AML2 cell line; 2.09 nM in the assay with PL-21 cell line; 6.63 nM with Molp8 cell line; 1.89 nM with SKM-1 cell line; 104 nM in the assay on OCI-M1 cell line; 18.4 nM in the assay with SU-DHL-8 cell line. Further, the IC50 with MV4-11 cell line amounted to 0.783 nM; in the assay on BT-474 cell line, 6.37 nM; with U251MG cell line it was 35.8 nM; with CMK cell line, 12.3 nM.

For `CNc1ccccc1NC(=O)NCc1ccc2c(c1)CN(C1CCC(=O)NC1=O)C2=O` (stereo not drawn) [Compound P4, 3-[[2-(2,6-dioxopiperidin-3-yl)-1-oxo-3H-isoindol-5-yl]methyl]-1-[2-(methylamino)phenyl]urea], the IC50 was 2.9 nM in assay [1]; 1.88 nM in the assay on EOL-1 cell line; 20.9 nM in the assay with OCI-M2 cell line; 138 nM with SKOV3 cell line; 119 nM with KE39 cell line; 5.45 nM in the assay with HL-60 cell line. The IC50 with NB-4 cell line was 2.63 nM; with THP-1 cell line, 85 nM; in the assay with JHUEM3 cell line, 58.6 nM; in the assay with SNU182 cell line, 13 nM; in the assay on Daudi cell line, 14.3 nM; in the assay on MOLM13 cell line it was 9.5 nM. Further, the IC50 in the assay with RPMI7951 cell line was 30.2 nM; in the assay on SK-BR-3 cell line, 64.6 nM; in the assay on LOVO cell line, 119 nM; in the assay with ML-2 cell line, 1.27 nM; with AGS cell line it was 650 nM; in the assay on THLE2 cell line it was 6.27 nM. In addition, the IC50 in the assay on OCI-AML4 cell line is 16.9 nM; in the assay with OCI-AML2 cell line, above 1000 nM; with PL-21 cell line it was 2.28 nM; in the assay with Molp8 cell line it was 7.42 nM; in the assay on SKM-1 cell line, 3.77 nM; in the assay on OCI-M1 cell line it was 124 nM. In addition, the IC50 with SU-DHL-8 cell line worked out at 19.8 nM; with MV4-11 cell line, 1.91 nM; in the assay with BT-474 cell line, 2.9 nM; with U251MG cell line it was 46 nM; in the assay with CMK cell line, 1000 nM. Also, in [2], the “anti-proliferative activity compared, in words” value is given as “significantly less active”. Further, the “antiproliferative activity compared, in words” value in assay [3] was “less active”.

For Pertuzumab [reference compound], the “anti-proliferative activity compared, in words” value in [4] and in assay [2] was “significantly less active” throughout.

B1: Lintuzumab IgG1-Compound (Ia) (conjugate, chains of the INN, looked up)
VH: QVQLVQSGAEVKKPGSSVKVSCKASGYTFTDYNMHWVRQAPGQGLEWIGYIYPYNGGTGYNQKFKSKATITADESTNTAYMELSSLRSEDTAVYYCARGRPAMDYWGQGTLVTVSS
VL: DIQMTQSPSSLSASVGDRVTITCRASESVDNYGISFMNWFQQKPGKAPKLLIYAASNQGSGVPSRFSGSGSGTDFTLTISSLQPDDFATYYCQQSKEVPWTFGQGTKVEIK
modifications: IgG1 conjugated to Compound (Ia)
In assay [5], B1 registered an IC50 of 0.012 nM.

B2: Lintuzumab IgG1-Compound (Id) (conjugate, chains of the INN, looked up)
VH: B1 VH
VL: B1 VL
modifications: IgG1 conjugated to Compound (Id)
In the case of B2, the IC50 in assay [5] was above 0.05 nM.
